Test results taken from article PMC12592502, “Unraveling the mechanisms behind the enhanced efficacy of β-lactam-based sideromycins” (Communications Biology, 2025).
Like-named read-outs stand apart in the source and are kept apart here.

Tests used:
Test in all cases: Membrane PBP binding assay, competition with Bocillin FL
PBP1a/1b = target: PBP1a/1b; set-up: species or system E. coli MC4100; settings: for IC50: E. coli MC4100 membranes, 12.5 μM Bocillin FL
Procedure: (§1) Membrane extracts containing PBPs were obtained as described above. Briefly, all species were grown in 1 L of TSB until the OD600 reached 0.9. The washed pellet was incubated with lysozyme (400 μg/mL), DNase (10 μg/mL) RNase(10 μg/mL) and anti-protease cocktail (200 mg/20 mL). Lysis was done with a French press (20,000 psi) and membrane protein were pelleted by ultracentrifugation steps (100,000 × g). The pellet was suspended in a minimal volume (300–500 μL) of KP 0.05 M buffer at pH 7. The protein concentration in the membrane preparations was determined with the Micro BCA TM Protein Assay Kit (Thermo Fisher Scientific, Rockford, IL) using bovine serum albumin as a standard.
(§2) The PBP binding assay was done as described previously[36],[56],[57]. For each antibiotic concentration tested, a quantity of 25 to 40 μg of membrane preparation was used as the source of PBPs, depending on the species. For the purified PaPBP3, 150 ng was used in the assay. First, increasing concentrations of the test antibiotic was added to the membrane or purified PaPBP3 preparations and incubated for 10 min at 30 °C. The reporter molecule Bocillin FL was then added at 12.5 μM for the membrane PBPs preparations and at 500 nM for the pure PaPBP3 samples for an additional 20 min at 30 °C. All reactions were stopped with the addition of the Laemmli-loading buffer (Bio-Rad) containing fresh β-mercaptoethanol (Sigma). All reactions were then heated at 100°C for 3 min before migration on SDS-polyacrylamide discontinuous gel system (7.5% stacking and 10% separating). Control samples without Bocillin FL were also included to highlight autofluorescent proteins that are not PBPs.
(§3) To be able to visualize labeled PBPs after electrophoresis, gels were rinsed in water and fixed in a solution of 50% methanol and 7% acetic acid for 30 min. The fluorescent images of gels were obtained with the Typhoon FLA 9500 instrument (GE-Healthcare Bio-Sciences Inc., Baie-d’Urfé, QC, CA) using a 473 nm excitation wavelength. To obtain quantifiable data, the software Quantity One 1D analysis was used (version 4.6.6; Bio-Rad Laboratories, Richmond, CA). The volume (intensity × constant area) of each PBP was measured. […] All IC50 data were obtained from at least two independent PBP binding assays using two different sets of compound concentrations using a linear regression. The PBP profiles were confirmed, and the PBP numbering were determined using published data and individual molecular weights. […] For example, amdinocillin (Sigma) was used for PBP2 identification. […] The IC50 for PBP 2 of P. aeruginosa was measured by including the SDS-PAGE comigrating autofluorescent protein in the background, as done previously.

PBP2 [1] = target: T1, PBP2 (Escherichia coli, UniProt P0AD65); set-up: species or system E. coli MC4100
T1 construct: using bacterial membranes as the source of PBPs; endogenous in cells; host or cells: E. coli MC4100 membrane preparation
Procedure: as §1, §2, §3

PBP3 [2] = target: T2, PBP3 (Escherichia coli, UniProt P0AD68); set-up: species or system E. coli MC4100; settings: for IC50 value ratio βL/SID-βL, PBP3: E. coli MC4100
T2 construct: using bacterial membranes as the source of PBPs; endogenous in cells; host or cells: E. coli MC4100 membrane preparation
Procedure: as §1, §2, §3

PBP4 = target: T3, PBP4 (Escherichia coli, UniProt P24228); set-up: species or system E. coli MC4100
T3 construct: using bacterial membranes as the source of PBPs; endogenous in cells; host or cells: E. coli MC4100 membrane preparation
Procedure: as §1, §2, §3

PBP2 [3] = target: T4, PBP2 (Pseudomonas aeruginosa, UniProt Q9X6V3)
T4 construct: using bacterial membranes as the source of PBPs; endogenous in cells; host or cells: P. aeruginosa ATCC 27853 membrane preparation
T4 sequence (Q9X6V3 1-646): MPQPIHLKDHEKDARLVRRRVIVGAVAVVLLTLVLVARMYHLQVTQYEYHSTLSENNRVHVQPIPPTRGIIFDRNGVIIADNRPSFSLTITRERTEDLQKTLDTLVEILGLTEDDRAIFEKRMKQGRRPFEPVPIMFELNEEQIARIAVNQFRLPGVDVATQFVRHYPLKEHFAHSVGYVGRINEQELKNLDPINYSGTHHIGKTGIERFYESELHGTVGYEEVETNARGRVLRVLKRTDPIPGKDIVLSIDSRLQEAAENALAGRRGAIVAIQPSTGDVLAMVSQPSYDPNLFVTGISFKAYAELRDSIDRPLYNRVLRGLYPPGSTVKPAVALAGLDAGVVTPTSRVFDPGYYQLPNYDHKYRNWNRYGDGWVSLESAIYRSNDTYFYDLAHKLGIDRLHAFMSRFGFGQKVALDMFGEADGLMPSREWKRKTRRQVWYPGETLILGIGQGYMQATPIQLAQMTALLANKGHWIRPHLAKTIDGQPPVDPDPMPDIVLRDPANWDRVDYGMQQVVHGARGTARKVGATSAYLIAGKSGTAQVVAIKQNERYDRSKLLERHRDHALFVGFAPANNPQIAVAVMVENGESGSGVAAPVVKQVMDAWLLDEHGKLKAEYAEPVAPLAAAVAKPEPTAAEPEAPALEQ
Procedure: as §1, §2, §3

PBP3 [4] = target: T5, PBP3 (Pseudomonas aeruginosa, UniProt G3XD46); settings: for IC50 value ratio βL/SID-βL, PBP3: P. aeruginosa ATCC 27853, membrane
T5 construct: using bacterial membranes as the source of PBPs; endogenous in cells; host or cells: P. aeruginosa ATCC 27853 membrane preparation
Procedure: as §1, §2, §3

[5] = E. coli MC4100 membranes, read-out: IC50 PBP2
[6] = E. coli MC4100 membranes, read-out: IC50 PBP3
[7] = E. coli MC4100 membranes, read-out: IC50 PBP4
[8] = P. aeruginosa ATCC 27853 membranes, read-out: IC50 PBP2
[9] = P. aeruginosa ATCC 27853 membranes, read-out: IC50 PBP3

Row | SMILES | IC50 (PBP1a/1b) [µM] | IC50 (PBP2 [1]; [5]) [µM] | IC50 (PBP3 [2]; [6]) [µM] | IC50 (PBP4; [7]) [µM] | IC50 (PBP2 [3]; [8]) [µM] | IC50 value ratio βL/SID-βL, PBP3 (PBP3 [4]) | IC50 (PBP3 [4]; [9]) [µM] | IC50 (PBP2 [3]) [µM] | IC50 (PBP3 [4]) [µM] | IC50 value ratio βL/SID-βL, PBP3 (PBP3 [2]) | IC50 value ratio βL/SID-βL, PBP1a/1b (PBP1a/1b; E. coli MC4100) | IC50 (PBP2 [1]; read-out: IC50 PBP2, E. coli MC4100 membranes) [µM] | IC50 (PBP3 [2]; read-out: IC50 PBP3, E. coli MC4100 membranes) [µM] | IC50 (PBP4; read-out: IC50 PBP4, E. coli MC4100 membranes) [µM] | IC50 (PBP2 [1]) [µM] | IC50 (PBP3 [2]) [µM] | IC50 (PBP4) [µM]
1 | CC1(C)SC2C(NC(=O)C(NC(=O)CN(CCCCNC(=O)c3cccc(O)c3O)C(=O)c3cccc(O)c3O)c3ccccc3)C(=O)N2C1C(=O)O (centres unmarked) [BAMP, bis-catechol (azotochelin)-ampicillin] | 2.4 ± 0.54 | 2.26 ± 0.57 | 0.091 ± 0.007 | > 50 | > 50 | 1.5 | 0.16 ± 0.01 | – | – | – | – | – | – | – | – | – | –
2 | CC1(C)S[C@@H]2[C@H](NC(=O)[C@H](N)c3ccccc3)C(=O)N2[C@H]1C(=O)O [AMP, ampicillin, reference compound] | 7.22 ± 0.07 | 11.4 ± 2.4 | 1.92 ± 0.94 | 8.3 ± 0.8 | – | – | – | > 50 | 0.24 ± 0.08 | – | – | – | – | – | – | – | –
3 | O=C(CN(CCCCNC(=O)c1cccc(O)c1O)C(=O)c1cccc(O)c1O)NC(C(=O)NC1C(=O)N2C(C(=O)O)=C(Cl)CCC12)c1ccccc1 (centres unmarked) [BLOR, bis-catechol (azotochelin)-loracarbef] | 0.55 ± 0.02 | > 50 | 0.075 ± 0.011 | 8.3 ± 0.5 | 4.8 ± 3 | > 16 | 3.2 ± 0.1 | – | – | 199 | – | – | – | – | – | – | –
4 | O=C(CCC(=O)N(CCCCNC(=O)c1cccc(O)c1O)CCCNC(=O)c1cccc(O)c1O)NCCCCCN(O)C(=O)CCCC(=O)NC(C(=O)NC1C(=O)N2C(C(=O)O)=C(Cl)CSC12)c1ccccc1 (centres unmarked) [MCEF, mixed ligand bis-catechol-mono-hydroxamate-cefaclor] | 0.15 ± 0.01 | – | – | – | 6.74 ± 0.03 | – | 2.01 ± 0.48 | – | – | 49 | 227 | 29.3 ± 2.3 | 0.32 ± 0.01 | 8.6 ± 1.3 | – | – | –
5 | N[C@@H](C(=O)N[C@@H]1C(=O)N2C(C(=O)O)=C(Cl)CC[C@H]12)c1ccccc1 [LOR, loracarbef, reference compound] | 42.5 ± 11.8 | > 50 | 14.9 ± 4.3 | 31.6 ± 9 | > 50 | – | > 50 | – | – | – | – | – | – | – | – | – | –
6 | N[C@@H](C(=O)N[C@@H]1C(=O)N2C(C(=O)O)=C(Cl)CS[C@H]12)c1ccccc1 [CEF, cefaclor, reference compound] | 34 ± 2 | – | – | – | > 50 | – | 39 ± 1.5 | – | – | – | – | – | – | – | > 50 | 15.4 ± 0.9 | 40.2 ± 8.6
